Columns and labels:
[1] = biological target: T1, human inducible NO-synthase (Homo sapiens, UniProt P35228); assay: Measurement of inducible NO-synthase activity in the presence of 20% human plasma serum; assay type: biochemical; conditions: 20% (v/v) human plasma serum added into the reaction volume; read-out: Inhibition of iNOS activity -logIC50 20% human serum (converted)
Experimental: (§1) The assay is performed in 96-well microtiter F-plates (Greiner, Frickenhausen, FRG) in a total volume of 100 μl in the presence of 100 nM calmodulin, 226 μM CaCl2, 477 μM MgCl2, 5 μM flavin-adenine-dinucleotide (FAD), 5 μM flavin mononucleotide (FMN), 0.1 mM nicotinamide adenine dinucleotide phosphate (NADPH), 7 mM glutathione, 10 μM tetrahydrobiopterine (BH4) and 100 mM 4-(2-hydroxyethyl)piperazine-1-ethanesulfonic acid (HEPES) pH 7.2. Arginine concentrations are 0.1 μM for enzyme inhibition experiments. 150000 dpm of [^3H]arginine are added to the assay mixture. Enzyme reaction is started by the addition of 4 μg of a crude cytosolic fraction containing human inducible NO-synthase and the reaction mixture is incubated for 45 to 60 min at 37° C. Enzyme reaction is stopped by adding 10 μl of 2M 2-morpholinoethane sulfonic acid buffer (MES-buffer) pH 5.0. 50 μl of the incubation mixture are transferred into a MADP N65 filtration microtiter plate (Millipore, Eschborn, FRG) containing already 50 μl of AG-50W-X8 cation exchange resin (Biorad, München, FRG). The resin in the Na loaded form is pre-equilibrated in water and 70 μl (corresponding to 50 μl dry beads) are pipetted under heavy stirring with a 8 channel pipette into the filtration plate. After pipetting 50 μl of the enzyme reaction mixture onto the filtration plates, the plates are placed on a filtration manifold (Porvair, Shepperton, UK) and the flow through is collected in Pico scintillation plates (Packard, Meriden, Conn.). The resin in the filtration plates is washed with 75 μl of water (1×50 μl and 1×25 μl) which is also collected in the same plate as the sample. The total flow through of 125 μl is mixed with 175 μl of Microscint-40 scintillation cocktail (Packard) and the scintillation plate is sealed with TopSeal P-foil (Packard). Scintillation plates are counted in a szintillation counter.
(§2) For the measurement of inducible NO-synthase-inhibiting potencies of compounds according to the invention increasing concentrations of inhibitors are included into the incubation mixture. IC50 values are calculated from the percent inhibition at given concentrations by nonlinear least square fitting.
The assay determining the human plasma serum binding of compounds according to the invention was performed essentially as the enzymatic activity assay described above. Human plasma serum 20% (v/v) was added into the reaction volume. Human serum was obtained after coagulation and sedimentation of drawn donor blood. After centrifugation (two times 3500 rpm, 30 min) the plasma serum was dialyzed in phosphate buffered saline (PBS) for 18 h using dialysis cassettes with a molecular weight cuttoff of 3500 Dalton (Slide-a-Lyzer 3.5 K, Pierce, Rockford Ill.) in order to reduce the L-arginine concentration that is interfering with the radioactive activity assay. The buffer was refreshed 5 times during dialysis. The serum was aliquoted and frozen at −20° C. until use. Inhibitory potency of the compounds according to the invention was determined as described above.

[2] = biological target: T1, human inducible NO-synthase; assay: Measurement of inducible NO-synthase activity; assay type: biochemical; conditions: crude cytosolic fraction containing human iNOS; 0.1 μM arginine; [3H]arginine; read-out: Inhibition of iNOS activity -logIC50 (converted)
Experimental: as §1, §2

melting point | IC50 [1] [nM] | IC50 [2] [nM] | Compound
195 °C (dec.) | 933 | 229 | CN(C)S(=O)(=O)c1ccc(-c2cnc3[nH]c(CCC4CCCCC(N)=N4)nc3c2)cc1 (stereo not shown) [compound 5, 4-{2-[2-(7-Amino-3,4,5,6-tetrahydro-2H-azepin-2-yl)-ethyl]-3H-imidazo[4,5-b]pyridin-6yl}-N,N-dimethyl-benzenesulfonamide]
306 °C | 1580 | 251 | COc1ccc(-c2cnc3[nH]c(CCC4CCCCC(N)=N4)nc3c2)cc1 (stereo not shown) [compound 3, 7-{2-[6-(4-Methoxy-phenyl)-3H-imidazo[4,5-b]pyridin-2-yl]-ethyl}-4,5,6,7-tetrahydro-3H-azepin-2-ylamine]
199 °C | – | 468 | CCN1CCN(S(=O)(=O)c2ccc(-c3cnc4[nH]c(CCC5CCCCC(N)=N5)nc4c3)cc2)CC1 (stereo not shown) [compound 7, 7-(2-{6-[4-(4-Ethyl-piperazine-1-sulfonyl)-phenyl]-3H-imidazo[4,5-b]pyridin-2-yl}-ethyl)-4,5,6,7-tetrahydro-3H-azepin-2-ylamine]
154 °C (dec.) | 603 | 302 | NC1=NC(CCc2nc3cc(-c4ccc(S(=O)(=O)N5CCC5)cc4)cnc3[nH]2)CCCC1 (stereo not shown) [compound 6, 7-(2-{6-[4-(Azetidine-1-sulfonyl)-phenyl]-3H-imidazo[4,5-b]pyridin-2-yl}-ethyl)-4,5,6,7-tetrahydro-3H-azepin-2-ylamine]
260 °C | – | 617 | CN(CC1CCCO1)S(=O)(=O)c1ccc(-c2cnc3[nH]c(CCC4CCCCC(N)=N4)nc3c2)cc1 (stereo not shown) [compound 10, 4-{2-[2-(7-Amino-3,4,5,6-tetrahydro-2H-azepin-2-yl)-ethyl]-3H-imidazo[4,5-b]pyridin-6-yl}-N-methyl-N-(tetrahydro-furan-2-ylmethyl)-benzenesulfonamide]
215 °C | – | 398 | Cc1ccccc1NS(=O)(=O)c1ccc(-c2cnc3[nH]c(CCC4CCCCC(N)=N4)nc3c2)cc1 (stereo not shown) [compound 9, 4-{2-[2-(7-Amino-3,4,5,6-tetrahydro-2H-azepin-2-yl)-ethyl]-3H-imidazo[4,5-b]pyridin-6-yl}-N-o-tolyl-benzenesulfonamide]

Second part, the molecule before the results:

Compound | melting point | IC50 [1] [nM] | IC50 [2] [nM]
Cc1ccc(NS(=O)(=O)c2ccc(-c3cnc4[nH]c(CCC5CCCCC(N)=N5)nc4c3)cc2)c(F)c1 (stereo not shown) [compound 8, 4-{2-[2-(7-Amino-3,4,5,6-tetrahydro-2H-azepin-2-yl)-ethyl]-3H-imidazo[4,5-b]pyridin-6-yl}-N-(2-fluoro-4-methyl-phenyl)-benzenesulfonamide] | 265 °C | – | 589
N#Cc1ccc(-c2cnc3[nH]c(CCC4CCCCC(N)=N4)nc3c2)cc1 (stereo not shown) [compound 2, 7-[2-(6-{4-Cyano-phen-1-yl}-3H-imidazo[4,5-b]pyridin-2-yl)-ethyl]-4,5,6,7-tetrahydro-3H-azepin-2-ylamine] | 175 °C (dec.) | 398 | 224
NC1=NC(CCc2nc3cc(-c4ccccc4)cnc3[nH]2)CCCC1 (stereo not shown) [compound 1, 7-[2-(6-Phenyl-3H-imidazo[4,5-b]pyridin-2-yl)-ethyl]-4,5,6,7-tetrahydro-3H-azepin-2-ylamine] | 117 °C (dec.) | 1000 | 170
NC1=NC(CCc2nc3cc(-c4cc5ccccc5o4)cnc3[nH]2)CCCC1 (stereo not shown) [compound 4, 7-[2-(6-Benzofuran-2-yl-3H-imidazo[4,5-b]pyridin-2-yl)-ethyl]-4,5,6,7-tetrahydro-3H-azepin-2-ylamine] | – | 955 | 229
